Values of other authors, collected in US6420361B1, “Soil pesticide” (priority 1999, dated 2002).

Structure (SMILES): CN1CSC(=S)N(C)C1 [TDTT, tetrahydro-3,5-dimethyl-2H-1,3,5-thiadiazine-2-thione]
- Solubility and stability in commonly used agricultural solvents or carriers: not very soluble or stable
- Concentration limit in liquid formulation (applied as a liquid formulation): less than 15 % by weight
